Measurements as given in patent US20040028616A1, “Inhibition of lung metastases by aerosol delivery of p53 gene and anti-cancer compounds” (priority 2002, published 2004).

Key:
[1] = system: B16-F10 lung metastases; experiment: Survival of B16-F10 challenged mice with PEI-p53/9NC-DLPC aerosol treatment; type: in vivo, C57BL/6 mice; conditions: aerosol treatment from day 11 for two weeks; n=10 mice per group
Experimental: C57BL/6 mice (n=10 mice per group) were injected via the tail vein with 25,000 B16-F10 cells on day 0 and the tumor was allowed to establish until day 10. The mice were then left untreated; or exposed to PEI-p53 aerosol complexes, to 9-nitrocamptothecin alone or to a sequential combination of p53 and 9-nitrocamptothecin, or 9-nitrocamptothecin and Neobam combination starting day 11 after tumor cell injection. Neobam was used as a negative control. The dosage was twice a week for drug or gene alone; and in combination once a week for gene and, twice a week for drug therapy. The mice were treated for two weeks, and then monitored over time for their survival.

[2] = system: B16-F10 cells; experiment: In vitro effect of p53 gene and 9NC on B16-F10 cell proliferation (hematocytometer cell count); type: cell-based; conditions: drug >0.5 mg/ml; data not shown
Experimental: B16-F10 cells grown in tissue culture plates (20,000 cells/well in a 48 well plate; […] cells/well in a 12 well plate) are transfected with PEI-DNA complexes (1 μg/ml; p53 or control empty plasmid, Neo) for 24 hours. […] The proliferation of B16-F10 cells 24 hours later was evaluated using the hematocytometer. To count the cells, the cell layer was washed with PBS and then trypsinized with 0.25% trypsin. The Alamar Blue Assay (Trek Diagnostic Systems, Inc) was also performed to test the viability of the cells (data not shown).
Control groups included cells treated with the genes (p53 and Neobam) alone, or with the drug (9-nitrocamptothecin) alone, or with Neobam and 9-nitrocamptothecin in combination. […] The p53 expression levels in parental and p53 treated B16-F10 cells have been reported previously (8).

[3] = system: B16-F10 lung metastases; experiment: In vivo effect of aerosol PEI-p53 and 9NC-DLPC on established B16-F10 lung metastases; set-up: species or system C57BL/6 mice; conditions: lower dose, agent alone
Experimental: C57BL/6 mice (7-8 weeks old, Harlan Sprague Dawley, Houston, Tex.) were injected via the tail vein with 25,000 B16-F10 cells on day 0. […] Animals in the single agent therapy group were administered p53 one time weekly or 9-nitrocamptothecin twice weekly.
The dosage for treatment was 2 mg plasmid/10 ml of aerosolized solution at a PEI:DNA (N:P) ratio of 10:1 for DNA, and 5 mg 9-nitrocamptothecin at a concentration of 0.5 mg/ml at a 9 nitrocamptothecin:dilauroylphosphatidylcholine weight ratio of 1:50. Aerosol delivery of drugs and genes was performed using 5% CO2-in-air for increased pulmonary deposition. On day 25-post tumor inoculation, the mice were sacrificed, lungs were fixed and the tumor index was calculated.
Tumor index was calculated by the formula: Tumor index=lung weights×average grade for the group. […] The growth of tumor contiguous to the lung was considered as a part of the lung for weighing the lungs. Values are mean+SD (n=10 mice per group).

SMILES: CC[C@@]1(O)C(=O)OCc2c1cc1n(c2=O)Cc2cc3c([N+](=O)[O-])cccc3nc2-1 [9-nitrocamptothecin]
- mean survival time [1]: 29 ± 3 days
- inhibition of B16-F10 as single agent, increased drug concentration [2]: very potent inhibition
- suppression of metastatic growth or increase of survival by single agent [3]: neither the p53 nor the 9-nitrocamptothecin alone is potent enough
